# Source: PMC9007336, “Identification and molecular characterization of a novel non-specific lipid transfer protein (TdLTP2) from durum wheat” (PLoS ONE, 2022)
# Target: T1, rTdLTP2 (Triticum turgidum, UniProt A0A446PDN1)
# T1 construct: gene LTP2; mature protein expressed from pPICZalphaA in Pichia pastoris, non-tagged, gel filtration and RP-HPLC
# Assay: hydrophobic ELISA plate coated with lipid, anti-LTP detection, one-site fit
# Format: binding
# Source text: hydrophobic ELISA plate coated with lipid, anti-LTP detection, one-site fit on rTdLTP2 | high kd values specifically for oleic, palmitic acids and for sterol (Fig 5B and 5C) | rTdLTP2 can bind a wide range of lipids as oleic, linoleic, stearic, and palmitic acids
# T1 sequence (A0A446PDN1 entry or part of it): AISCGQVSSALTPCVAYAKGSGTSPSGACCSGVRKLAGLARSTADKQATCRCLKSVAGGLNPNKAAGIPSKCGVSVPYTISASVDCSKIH
row,SMILES,Kd
1,CC[C@H](CC[C@@H](C)[C@H]1CC[C@H]2[C@@H]3CC=C4C[C@@H](O)CC[C@]4(C)[C@H]3CC[C@]12C)C(C)C [B-sitosterol],300 nM
2,CCCCCCCCCCCCCCCCCC(=O)O [stearic acid],470 nM

# Next, values leading:
row,Kd,SMILES
1,310 nM,CCCCCCCCCCCCCCCC(=O)O [Palmitic acid]
2,300 nM,CCCCCCCC/C=C\CCCCCCCC(=O)O [oleic acid]
3,590 nM,CCCCC/C=C\C/C=C\CCCCCCCC(=O)O [linoleic acid]
